Data reported in ChEMBL document CHEMBL1151327, “Cytotoxicity of curcuminoids and some novel compounds from Curcuma zedoaria” (1998).
≈ marks a conversion by molar mass, not a printed value. Calls of active or inactive are those of the source. The rule behind the calls is not given here.

Each compound was assayed on OVCAR-3 (assay: Cytotoxicity against human OVCAR-3 after 48 hrs). Settings: OVCAR-3, 48 h, read-out: CD50 (the source's name).
Format: functional
`O=C(/C=C/c1ccc(O)cc1)CC(=O)/C=C/c1ccc(O)cc1` [BISDEMETHOXYCURCUMIN] was tested, and the CC50 was 3.1 µg/mL (≈ 10.1 µM).
In the case of `COc1cc(/C=C/C(=O)CC(=O)/C=C/c2ccc(O)c(OC)c2)ccc1O` [CURCUMIN], the CC50 is reported as 4.4 µg/mL (≈ 11.9 µM).
`COc1cc(/C=C/C(O)=C/C(=O)/C=C/c2ccc(O)cc2)ccc1O` [DEMETHOXYCURCUMIN] showed a CC50 of 3.8 µg/mL (≈ 11.2 µM).

These compounds were tested on OVCAR-3 (assay: Cytotoxicity against human OVCAR-3 upto 20 ug/mL after 48 hrs). Settings: not given.
Format: functional, cell-based
For `C=C(C)[C@@H]1CC[C@](C)(O)[C@H]2CC[C@](C)(O)[C@H]2C1`, the Activity was “inactive”.
With `Cc1cc(C(=O)O)cc2c1CCC2C` (stereo unspecified) the Activity was “inactive”.
With `Cc1coc2c1C(=O)[C@@H]1[C@@](C)(C2)[C@H](O)CC[C@@]1(C)O` the Activity was “inactive”.
